Assay type: in vivo, human
Settings: percent; CLCr > 60 mg/dL (normal renal function), n = 22

Substance: teicoplanin
- Patients with plasma teicoplanin >10mg/L: 63%
